Results on two molecules are retold here after article PMC13395416 (PLOS Pathogens, 2026).

Ends that are not written are not given here. * marks the point of attachment. Biotin = O=C1N[C@H]2[C@H](CS[C@H]2CCCCC(=O)*)N1

What is called Kd is a measure of binding affinity in units of concentration.

One experiment deals with T1, SteC1-457 (Salmonella enterica, UniProt D0ZIB5).
T1 construct: gene steC
The following applies: 5 μM MYL12A, 100 μM ATP with 20 kBq [γ-32P]ATP, 100 nM kinase, 10 mM MgCl2, pH 7.5, 30 °C.

Experiment [1] addresses SteC_(210-429) WT, minimal active kinase domain (Salmonella Typhimurium strain 14028s, UniProt D0ZIB5 210-429). Kind of experiment: BLI. As to conditions: both partners purified.

SteC_(210-429) WT, minimal active kinase domain, sequence (D0ZIB5 210-429): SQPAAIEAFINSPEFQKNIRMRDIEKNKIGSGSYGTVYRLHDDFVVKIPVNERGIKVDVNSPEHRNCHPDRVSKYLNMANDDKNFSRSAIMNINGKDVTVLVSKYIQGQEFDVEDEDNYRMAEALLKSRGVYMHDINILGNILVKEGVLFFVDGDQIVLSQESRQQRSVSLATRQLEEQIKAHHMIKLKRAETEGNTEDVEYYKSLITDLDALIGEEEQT
T1 sequence (D0ZIB5 whole entry): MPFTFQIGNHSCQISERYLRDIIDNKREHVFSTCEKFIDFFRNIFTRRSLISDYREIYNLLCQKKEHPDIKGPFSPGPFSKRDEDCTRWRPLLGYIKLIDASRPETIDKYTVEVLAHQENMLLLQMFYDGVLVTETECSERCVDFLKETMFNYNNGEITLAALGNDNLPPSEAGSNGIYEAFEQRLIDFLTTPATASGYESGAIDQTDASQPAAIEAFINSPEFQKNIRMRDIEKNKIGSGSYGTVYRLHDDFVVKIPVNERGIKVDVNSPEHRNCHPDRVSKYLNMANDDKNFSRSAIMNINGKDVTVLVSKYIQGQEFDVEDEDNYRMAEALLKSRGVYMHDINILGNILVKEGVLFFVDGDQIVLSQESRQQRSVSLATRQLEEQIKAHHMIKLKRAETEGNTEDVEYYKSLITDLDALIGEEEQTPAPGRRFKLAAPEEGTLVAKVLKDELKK

`Nc1ncnc2c1ncn2[C@@H]1O[C@H](COP(=O)(O)OP(=O)(O)OP(=O)(O)O)[C@@H](O)[C@H]1O` [ATP]: the “radioactive kinase assay, SDS-PAGE autoradiography” value at SteC1-457 is listed as “SteC1-457 mediated phosphorylation of MYL12A”.

On to Biotin-KGPPSSVPKSRHLTIKLTPAHSRK (peptide, UniProt O95466 190-213, looked up) [N-terminally biotinylated FMNL1 peptide (K190-K213)], for which, in experiment [1], binding was characterised by a dissociation constant (Kd) of 7.9 µM.
